{"source": "paper PMC4087041", "about": "“Effect of the Piperazine Unit and Metal-Binding Site Position on the Solubility and Anti-Proliferative Activity of Ruthenium(II)- and Osmium(II)- Arene Complexes of Isomeric Indolo[3,2-c]quinoline—Piperazine Hybrids” (Inorganic Chemistry, 2014)", "key": {"[1]": {"test_system": "SK-N-MC neuroepithelioma cells", "test": "MTT assay, inhibition of growth of SK-N-MC cells", "format": "cell-based, Human", "conditions": "72 h, medium with diferric transferrin 1.25 μM, mean ± SD (three experiments), read-out: IC50 at inhibiting the growth of SK-N-MC neuroepithelioma cells", "description": "Human SK-N-MC neuroepithelioma cells were obtained from the American Type Culture Collection (ATCC; Manassas, VA). The SK-N-MC cell type was grown as described previously.[51]\nThe effect of complexes [1a,b]Cl–[3a,b]Cl on the cellular proliferation of SK-N-MC cells was examined using the 1-(4,5-dimethylthiazol-2-yl)-2,5-diphenyl-tetrazolium (MTT) assay by standard techniques.[52],[53] Human SK-N-MC cells were chosen for these studies as the antiproliferative effect of metal complexes has been extensively examined in this cell type.[52]−[54] MTT reduction is proportional to viable cell counts using SK-N-MC cells.[51] SK-N-MC cells were seeded at 1.5 × 10^4 cells/well in 96-well microtiter plates in a medium containing the compounds (0–50 μM) and human diferric transferrin (Tf) at 1.25 μM ([Fe] = 2.5 μM). Control samples contained Tf (1.25 μM) in the absence of the compounds. […] It is essential to add to the media when assessing the antiproliferative activity of the ligands used as positive controls, namely, desferrioxamine (DFO), di-2-pyridylketone 4,4-dimethyl-3-thiosemicarbazone (Dp44mT), and Doxorubicin.[61] The cells were incubated at 37 °C for 72 h, after which 10 μL of MTT solution (stock solution: 5 mg/mL) was added to each well and incubated for 2 h at 37 °C. After cell solubilization using 100 μL of 10% SDS–50% isobutanol in 0.01 M HCl, the plates were read at 570 nm using a scanning multiwell spectrophotometer. The inhibitory concentration (IC50) was defined as the concentration of the compound necessary to reduce the absorbance to 50% of the untreated control."}, "[2]": {"test": "Stability in DMSO by ESI mass spectrometry", "format": "physicochemical", "conditions": "DMSO solution, up to 19 h old, diluted with methanol 1:100, ESI-MS", "text": "Complexes [3a]Cl and [3b]Cl remain intact when dissolved in DMSO."}, "[3]": {"test": "Hydrolysis / stability in aqueous media by HPLC", "format": "physicochemical", "conditions": "for Estimated half-lifetime of the chlorido species: 75 μM solution in 20 mM phosphate buffer at pH 7.40, HPLC with UV detection at 300 nm; for Fraction of complex hydrolyzed after 24 h: 20 mM NaH2PO4/Na2HPO4 buffer at pH 7.40, 24 h, HPLC (Figure S4)", "description": "One-dimensional (1D) ^1H and ^13C NMR and two-dimensional (2D) ^1H–^1H COSY, ^1H–^1H TOCSY, ^1H–^1H ROESY or ^1H–^1H NOESY, ^1H–^13C HSQC, and ^1H–^13C HMBC NMR spectra were recorded on two Bruker Avance III spectrometers at 500.32 or 500.10 (^1H), and 125.82 or 125.76 (^13C) MHz, respectively, by using DMSO-d6 as a solvent at room temperature and standard pulse programs. ^1H and ^13C shifts are quoted relative to the solvent residual signals. The atom numbering scheme used for NMR assignments is depicted in Supporting Information, Scheme S1. Electrospray ionization mass spectrometry (ESI-MS) was carried out with a Bruker Esquire 3000 instrument, and the samples were dissolved in methanol. Elemental analyses were performed at the Microanalytical Laboratory of the University of Vienna with a PerkinElmer 2400 CHN Elemental Analyzer (PerkinElmer, Waltham, MA). Hydrolysis studies were undertaken on a ThermoFisher Dionex UltiMate 3000 HPLC (Waltham, MA) device. The column compartment was kept at 298 K. A Hypersil Gold C18 Reversed phase Silica Column (250 × 4.6 mm, 5 μm particle size, ThermoFisher; Waltham, MA) equipped with a guard column was used. The complexes were dissolved in either pure deionized water or phosphate buffer at pH 7.40 so that the final concentrations were 100 mM or 75 μM, respectively. Samples were automatically injected into the HPLC, and separation of the hydrolysis products was achieved by applying gradient elution (5–80% or 10–50% acetonitrile in 15 mM aqueous formic acid). Detection and quantification of the peaks was conducted using the ThermoFisher Dionex DAD-3000RS UV detector (Waltham, MA) at a wavelength of 300 nm and the Chromeleon 7 software package (ThermoFisher Dionex, Sunnyvale, CA).\nTheir stability in deionized water (Supporting Information, Figure S3) is very similar to that in buffered solution at physiological pH (Supporting Information, Figure S4; 20 mM NaH2PO4/Na2HPO4 buffer at pH 7.40). […] Attempts to establish the nature of the predominant hydrolysis reactions were then performed. The fractions containing the two peaks from the hydrolysis of [2a]Cl were collected and subjected to high-resolution ESI mass spectrometry. The most abundant mass at m/z 373.1397 could be attributed to the doubly charged fragment [M–2Cl]^2+, whereas the second peak at m/z 736.2786 was assigned to the hydroxido species [M–2Cl+OH]^+, clearly stemming from hydrolysis of the chlorido ligand.\nData were recorded every hour over 24 h using HPLC with UV detection at 300 nm (see Experimental Section for details). Quantification was done by normalizing the AUC to the AUC at 0 h."}}, "note": "Read-outs that look alike come from different tables or passages of the source.", "data": [{"compound": "CC(=O)N(O)CCCCCNC(=O)CCC(=O)N(O)CCCCCNC(=O)CCC(=O)N(O)CCCCCN", "note": "[DFO, desferrioxamine, reference compound]", "values": [{"measurement": "IC50", "setting": "[1]; Homo sapiens, SK-N-MC", "result": "9.83 ± 0.39", "unit": "µM"}]}, {"compound": "(η^6-p-Cymene)[6-(4-methylpiperazin-1-yl)-κN-(pyridin-2-yl-methylene)-11H-indolo[3,2-c]quinolin-8-κN-amine]chloridoosmium(II) Chloride [[3b]Cl]", "values": [{"measurement": "IC50", "setting": "[1]", "result": "41.2 ± 2.37", "unit": "µM"}, {"measurement": "Stability when dissolved in DMSO", "setting": "[2]", "result": "remain intact"}]}, {"compound": "(η^6-p-Cymene)[6-(4-methylpiperazin-1-yl)-κN-(pyridin-2-yl-methylene)-11H-indolo[3,2-c]quinolin-2-κN-amine]chloridoosmium(II) Chloride [[1b]Cl]", "values": [{"measurement": "IC50", "setting": "[1]", "result": "> 50", "unit": "µM"}]}, {"compound": "COc1cccc2c1C(=O)c1c(O)c3c(c(O)c1C2=O)C[C@@](O)(C(=O)CO)C[C@@H]3O[C@H]1C[C@H](N)[C@H](O)[C@H](C)O1", "note": "[DOX, doxorubicin, reference compound]", "values": [{"measurement": "IC50", "setting": "[1]; Homo sapiens, SK-N-MC", "result": "0.15 ± 0.05", "unit": "µM"}]}, {"compound": "CN(C)C(=S)NN=C(c1ccccn1)c1ccccn1", "note": "[Dp44mT, di-2-pyridylketone 4,4-dimethyl-3-thiosemicarbazone, reference compound]", "values": [{"measurement": "IC50", "setting": "[1]", "result": "0.004 ± 0.003", "unit": "µM"}]}, {"compound": "(η^6-p-Cymene)[6-(4-methylpiperazin-1-yl)-κN-(pyridin-2-yl-methylene)-11H-indolo[3,2-c]quinolin-4-κN-amine]chloridoruthenium(II) Chloride [[2a]Cl]", "values": [{"measurement": "IC50", "setting": "[1]", "result": "18.4 ± 2.22", "unit": "µM"}, {"measurement": "Estimated half-lifetime of the chlorido species", "setting": "[3]", "result": "approximately 6 h"}, {"measurement": "AUC of third (minor) hydrolysis species compared to the starting material", "setting": "[3]; 75 μM solution in 20 mM phosphate buffer at pH 7.40, after 24 h", "result": "approximately 12%"}, {"measurement": "Fraction of complex hydrolyzed after 24 h", "setting": "[3]", "result": "greater than 90%"}]}, {"compound": "(η^6-p-Cymene)[6-(4-methylpiperazin-1-yl)-κN-(pyridin-2-yl-methylene)-11H-indolo[3,2-c]quinolin-2-κN-amine]chloridoruthenium(II) Chloride [[1a]Cl]", "values": [{"measurement": "IC50", "setting": "[1]", "result": "39.8 ± 2.07", "unit": "µM"}]}, {"compound": "(η^6-p-Cymene)[6-(4-methylpiperazin-1-yl)-κN-(pyridin-2-yl-methylene)-11H-indolo[3,2-c]quinolin-8-κN-amine]chloridoruthenium(II) Chloride [[3a]Cl]", "values": [{"measurement": "IC50", "setting": "[1]", "result": "> 50", "unit": "µM"}, {"measurement": "Stability when dissolved in DMSO", "setting": "[2]", "result": "remain intact"}]}, {"compound": "(η^6-p-Cymene)[6-(4-methylpiperazin-1-yl)-κN-(pyridin-2-yl-methylene)-11H-indolo[3,2-c]quinolin-4-κN-amine]chloridoosmium(II) Chloride [[2b]Cl]", "values": [{"measurement": "IC50", "setting": "[1]", "result": "19.4 ± 1.28", "unit": "µM"}, {"measurement": "Estimated half-lifetime of the chlorido species", "setting": "[3]", "result": "approximately 6 h"}, {"measurement": "Fraction of complex hydrolyzed after 24 h", "setting": "[3]", "result": "greater than 90%"}]}]}
